US12668594B2, “TYK2 inhibitors and uses thereof” (Sudo Biosciences Limited, priority 2020, dated 2026)

Key:
IFN-γ-pSTAT1 = experiment: STAT phosphorylation assay IFN-γ-pSTAT1; format: cell-based; settings: Homo sapiens, 0.25 h; IFN-γ (50 ng/ml) 15 min, phospho-STAT1 Western blot normalized to GAPDH; read-out: Selectivity assays (STATs) % Inhibition IFN-γ-pSTAT1
Description: (§1) 0.3 to 0.5×10^6 Reporter cells (IL-23, IL-2, IFNα or IFNγ on HEK293 background purchased from InvivoGen) were seeded per well in 0.8 mL of DMVEM cell medium supplemented with 100 U/ml-100 μg/ml Pen-Strep and 10% FBS in 12 or 6-well plates and incubated overnight at 370 C, 5% CO2, 95% humidity. 0.1 mL test compounds serially diluted in DMSO and further diluted (10×) in intermediate plate containing cell treatment medium were prepared and added to the wells. The plates were incubated at 37° C. for 1 hr. Control wells contained 1′% DMSO prepared in cell medium. Post incubation, respective reporter cells were stimulated with 0.1 mL of either IL-23 (50 ng/ml; Miltenyl Biotech, cat #130-095-758) for 45 min or IL-2 (20 ng/ml) (Miltenyl Biotech, cat #130-097-742) for 15 min or IFNα/β (10 ng/ml) (Invivogen, cat #rcyc-hifna2b) for 15 min or IFN-γ (50 ng/ml) (Invivogen, cat #rcyec-hifng) for 15 min. Post stimulation cells were washed with DPBS once and lysed with 100 μL of RIPA buffer and placed on ice for 5 min. The lysates were then transferred to 1.5 mL Eppendorf tubes and centrifuged for 5 minutes at 10000 rpm at 4° C. and the supernatants either stored at −80° C. or used for protein estimation.
Samples were diluted 5× in cell lysis buffer and total protein concentration was determined in 96-well using Bradford Protein Assay following manufacturer's instructions. Western blot assay was performed using Protein Simple Wes Master Kit (SM-W004/DM-001) and device, following manufacturer's instructions. 1 to 2 mg/mL of total proteins were loaded per sample in 4 μL volume; phospho-STAT1, 3 or 5 antibodies (1:25) and GAPDH antibodies were diluted as indicated.
(§2) Western blot results were analysed using Compass 2.7.1 software and phospho-STAT quantity (AUC values) was normalized to GAPDH quantity (AUC values) for each sample.

JAK3-JH1 = biological target: T1, JAK3-JH1 (Homo sapiens, UniProt P52333); experiment: HTRF-based selectivity assay, JAK3 catalytic domain; format: biochemical; settings: kinase domain (JH1), ATP 2.12 μM
T1 construct: recombinant purified His or GST-tagged catalytic domain for each enzyme; purchased Carna biosciences 08-046
Description: (§3) The ability of compounds to inhibit the activity of JAK1, JAK2, JAK3 and TYK2 is measured using a recombinant purified His or GST-tagged catalytic domain for each enzyme (JAK1, JAK2 and TYK2 are generated in-house; JAK3 was purchased from Carna biosciences, Cat #08-046) in an HTRF format biochemical assay. The reactions employs a commercial peptide substrate from Cisbio (Cat #62TK0PEC). The basic assay protocol is as follows: first, 2.5 µL of diluted compounds (4×) in DMSO are dispensed into a 384-well Optiplate. Next, 2.5 μL of enzyme (final concentrations for enzymes are: TYK2-700 ng/mL, JAK1-80.6 ng/mL, JAK2-2.1 ng/mL and JAK3-171.8 ng/mL) is added and incubated at RT for 5-20 min. Finally, 5 μl of mixture of 2×ATP [Final concentration 20 μM for TYK2, 21.43 μM for JAK1, 14.7 μM for JAK2 and 2.12 μM for JAK3]+2× Substrate [Final concentration 217 nM for TYK2, 454.7 nM for JAK1, 200 nM for JAK2 and 257.4 nM for JAK3] is added to 384 well Optiplate. Composition of Kinase assay buffer used in the assay is as follows: HEPES 50 mM, EGTA 1 mM, MgCl2 10 mM, DTT2 mM, Tween-20 0.010 and water. Then the plates are shaken and then incubated at 26.5° C. for 60 min. At the end of the incubation, 10 μL of mixture of 2× detection mix [(EU3+Cryptate (1×)+Streptavidin-XL665 (final concentration: 62.5 nM) (HTRF KinEASE-TK kit Cat #62TK0PEC)] is added to the assay plate, shaken and incubated at 26.5° C. for 60 min. Plates are then read on a Perkin Elmer Envision for HTRF signal (665 nm reading/615 nm reading). After normalization to untreated controls, the percent inhibition of the HTRF signal at each compound concentration is calculated. The plot of percent inhibition versus the log of compound concentration is fit with a 4-parameter dose response equation to calculate IC50 values.

JAK2-JH1 = biological target: T2, JAK2-JH1 (Homo sapiens, UniProt O60674); experiment: HTRF-based selectivity assay, JAK2 catalytic domain; format: biochemical; settings: kinase domain (JH1), ATP 14.7 μM
T2 construct: recombinant purified His or GST-tagged catalytic domain for each enzyme; made in house
Description: as §3

TYK2-JH1 = biological target: T3, TYK2-JH1 (Homo sapiens, UniProt P29597); experiment: HTRF-based selectivity assay, TYK2 catalytic domain; format: biochemical; settings: kinase domain (JH1), ATP 20 μM
T3 construct: recombinant purified His or GST-tagged catalytic domain for each enzyme; made in house
T3 sequence (P29597 897-1176 limits assumed): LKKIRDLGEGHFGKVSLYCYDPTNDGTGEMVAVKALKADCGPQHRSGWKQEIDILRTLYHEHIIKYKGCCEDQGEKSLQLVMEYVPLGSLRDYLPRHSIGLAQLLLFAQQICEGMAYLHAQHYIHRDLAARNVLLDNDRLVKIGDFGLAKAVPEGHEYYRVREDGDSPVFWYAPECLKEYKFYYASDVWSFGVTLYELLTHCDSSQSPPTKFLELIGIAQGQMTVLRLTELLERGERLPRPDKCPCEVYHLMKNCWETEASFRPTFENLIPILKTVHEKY
Description: as §3

IFN-γ = experiment: Selectivity assay (SEAP) IFN-γ reporter cells; format: cell-based; settings: Homo sapiens, IFN-γ reporter cells on HEK293 background, read-out: Selectivity assays (SEAP) nM or E-Max % IFN-γ
TYK2 [1] = biological target: T4, TYK2 (Homo sapiens, UniProt P29597); experiment: HEK-Blue IFNα/β reporter assay (SEAP) for TYK2 pseudokinase inhibition; format: cell-based; settings: HEK-Blue IFNα/β cells, 1 ng/mL human recombinant IFNα
Summary of the method: (§4)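 HEK-Blue cells carrying cytokine receptor and STAT3 or STAT1 SEAP reporter, pretreated 60 min with compound, then stimulated with 10 ng/mL IL-23 (22–24 h) or 1 ng/mL IFNα (16–18 h). SEAP read with QUANTI-Blue; IC50 by non-linear regression versus no-inhibitor and unstimulated controls.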

IL-2 = experiment: Selectivity assay (SEAP) IL-2 reporter cells; format: cell-based; settings: Homo sapiens, IL-2 reporter cells on HEK293 background, read-out: Selectivity assays (SEAP) nM or E-Max % IL-2
JAK1-JH1 = biological target: T5, JAK1-JH1 (Homo sapiens, UniProt P23458); experiment: HTRF-based selectivity assay, JAK1 catalytic domain; format: biochemical; settings: kinase domain (JH1), ATP 21.43 μM
T5 construct: recombinant purified His or GST-tagged catalytic domain for each enzyme; made in house
Description: as §3

TYK2 [2] = biological target: T4, TYK2; experiment: HEK-Blue IL-23 reporter assay (SEAP) for TYK2 pseudokinase inhibition; format: cell-based; set-up: HEK-Blue™ IL-23 and IFNα/β cells with a stably-integrated cytokine receptor and STAT3 or STAT1; host or cells: HEK-Blue IL-23 / HEK-Blue IFNα/β cells (HEK293 background); settings: HEK-Blue IL-23 cells, 10 ng/mL human recombinant IL-23, SEAP reporter; read-out: IL23 IC50
Summary of the method: as §4

IL-2-pSTAT5 = experiment: STAT phosphorylation assay IL-2-pSTAT5; format: cell-based; settings: Homo sapiens, 0.25 h; IL-2 (20 ng/ml) 15 min, phospho-STAT5 Western blot normalized to GAPDH; read-out: Selectivity assays (STATs) % Inhibition IL-2-pSTAT5
Description: as §1, with “The lysates were then transferred to 1.5 mL Eppendorf tubes and centrifuged for 5 minutes at 10000 rpm at 4° C. and the supernatants either stored at −80° C. or used for protein estimation.” left out
Samples were diluted 5× in cell lysis buffer and total protein concentration was determined in 96-well using Bradford Protein Assay following manufacturer's instructions. […]
as §2

T4 sequence (P29597 whole entry): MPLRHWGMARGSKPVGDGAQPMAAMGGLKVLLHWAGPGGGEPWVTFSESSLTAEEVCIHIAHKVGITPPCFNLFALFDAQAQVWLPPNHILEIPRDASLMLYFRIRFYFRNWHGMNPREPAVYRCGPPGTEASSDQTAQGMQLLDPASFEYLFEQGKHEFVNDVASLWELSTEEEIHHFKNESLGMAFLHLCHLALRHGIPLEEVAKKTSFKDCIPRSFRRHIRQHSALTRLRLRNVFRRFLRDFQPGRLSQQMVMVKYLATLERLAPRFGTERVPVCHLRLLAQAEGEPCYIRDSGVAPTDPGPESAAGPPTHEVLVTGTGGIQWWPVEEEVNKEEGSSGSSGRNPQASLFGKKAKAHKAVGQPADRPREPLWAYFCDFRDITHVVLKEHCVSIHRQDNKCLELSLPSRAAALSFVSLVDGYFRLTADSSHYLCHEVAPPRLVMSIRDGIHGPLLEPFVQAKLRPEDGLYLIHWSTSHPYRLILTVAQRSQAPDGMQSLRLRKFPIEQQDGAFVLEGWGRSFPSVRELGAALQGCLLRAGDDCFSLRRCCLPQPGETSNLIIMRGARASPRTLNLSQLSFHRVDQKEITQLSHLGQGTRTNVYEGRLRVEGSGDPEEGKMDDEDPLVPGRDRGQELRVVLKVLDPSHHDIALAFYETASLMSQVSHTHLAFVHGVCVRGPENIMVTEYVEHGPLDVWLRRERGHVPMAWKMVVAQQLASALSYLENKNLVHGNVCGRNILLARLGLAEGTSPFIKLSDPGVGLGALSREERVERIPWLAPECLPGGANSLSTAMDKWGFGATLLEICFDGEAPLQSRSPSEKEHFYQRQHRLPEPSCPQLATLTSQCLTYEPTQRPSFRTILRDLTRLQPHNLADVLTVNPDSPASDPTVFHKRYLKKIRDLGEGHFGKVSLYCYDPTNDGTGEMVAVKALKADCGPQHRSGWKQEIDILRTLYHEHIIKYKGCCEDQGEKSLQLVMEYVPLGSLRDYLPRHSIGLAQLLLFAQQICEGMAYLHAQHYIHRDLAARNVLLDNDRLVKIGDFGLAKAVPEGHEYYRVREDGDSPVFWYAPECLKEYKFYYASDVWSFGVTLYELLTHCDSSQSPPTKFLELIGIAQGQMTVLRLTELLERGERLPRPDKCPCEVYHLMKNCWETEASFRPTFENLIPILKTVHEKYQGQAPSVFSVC
T5 sequence (P23458 875-1153 limits assumed): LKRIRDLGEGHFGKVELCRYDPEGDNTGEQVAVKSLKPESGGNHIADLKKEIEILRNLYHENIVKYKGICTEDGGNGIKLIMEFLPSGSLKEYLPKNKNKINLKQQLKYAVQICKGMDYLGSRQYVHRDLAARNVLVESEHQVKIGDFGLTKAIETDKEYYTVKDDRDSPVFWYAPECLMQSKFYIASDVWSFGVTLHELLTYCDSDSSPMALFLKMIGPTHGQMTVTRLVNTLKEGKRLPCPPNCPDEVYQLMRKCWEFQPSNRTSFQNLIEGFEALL
T2 sequence (O60674 849-1124 limits assumed): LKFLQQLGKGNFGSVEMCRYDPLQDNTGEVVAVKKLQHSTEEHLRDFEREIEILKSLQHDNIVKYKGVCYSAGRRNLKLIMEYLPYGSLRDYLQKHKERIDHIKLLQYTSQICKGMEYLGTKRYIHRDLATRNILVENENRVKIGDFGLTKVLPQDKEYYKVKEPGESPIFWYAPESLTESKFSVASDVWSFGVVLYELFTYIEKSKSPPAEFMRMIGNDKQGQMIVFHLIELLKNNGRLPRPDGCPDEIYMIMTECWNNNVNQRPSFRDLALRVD
T1 sequence (P52333 822-1111 limits assumed): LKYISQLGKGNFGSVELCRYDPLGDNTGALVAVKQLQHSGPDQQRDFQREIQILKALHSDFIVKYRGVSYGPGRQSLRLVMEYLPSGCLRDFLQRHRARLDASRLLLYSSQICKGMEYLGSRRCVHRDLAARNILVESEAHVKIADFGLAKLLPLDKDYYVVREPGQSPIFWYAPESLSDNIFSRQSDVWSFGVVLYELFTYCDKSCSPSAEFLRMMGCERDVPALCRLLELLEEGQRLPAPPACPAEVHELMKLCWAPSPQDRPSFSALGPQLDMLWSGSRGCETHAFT

Row | Compound | IC50 (IFN-γ-pSTAT1) | IC50 (JAK3-JH1) | IC50 (JAK2-JH1) | IC50 (TYK2-JH1) | IC50 (IFN-γ) | IC50 (TYK2 [1]) | IC50 (IL-2) | IC50 (JAK1-JH1) | IC50 (TYK2 [2]) | IC50 (IL-2-pSTAT5)
1 | O=C(Nc1cc2c(cn1)c(=O)[nH]n2-c1ccccc1)C1CC1 [Compound I-1, N-(3-oxo-1-phenyl-2,3-dihydro-1H-pyrazolo[4,3-c]pyridin-6-yl)cyclopropanecarboxamide] | > 90 µM | 10 to 30 µM | 30 to 90 µM | 30 to 90 µM | 30000 to 90000 nM | < 10 µM | > 90000 nM | 30 to 90 µM | < 10 µM | –
2 | Cc1cc(Nc2cc3c(cn2)c(=O)[nH]n3-c2ccccc2)nc(C)n1 [Compound I-3, 6-((2,6-dimethylpyrimidin-4-yl)amino)-1-phenyl-1,2-dihydro-3H-pyrazolo[4,3-c]pyridin-3-one] | > 90 µM | < 10 µM | < 10 µM | 10 to 30 µM | 10000 to 30000 nM | < 10 µM | 30000 to 90000 nM | > 90 µM | < 10 µM | > 90 µM
3 | COc1cccc(-n2[nH]c(=O)c3cnc(Nc4cc(C)nc(C)n4)cc32)c1 [Compound I-17, 6-((2,6-dimethylpyrimidin-4-yl)amino)-1-(3-methoxyphenyl)-1,2-dihydro-3H-pyrazolo[4,3-c]pyridin-3-one] | > 90 µM | 10 to 30 µM | 10 to 30 µM | 30 to 90 µM | 30000 to 90000 nM | < 10 µM | > 90000 nM | > 90 µM | < 10 µM | 30 to 90 µM
4 | O=c1[nH]n(-c2ccc(OC(F)(F)F)c(F)c2)c2cc(Nc3ccc(F)cn3)ncc12 [Compound I-95, 1-(3-fluoro-4-(trifluoromethoxy)phenyl)-6-((5-fluoropyridin-2-yl)amino)-1,2-dihydro-3H-pyrazolo[4,3-c]pyridin-3-one] | – | > 90 µM | > 90 µM | > 90 µM | > 90000 nM | < 10 µM | > 90000 nM | > 90 µM | < 10 µM | –
